# Assay results taken from ChEMBL document CHEMBL4706602, “β-lactam antibiotics: An overview from a medicinal chemistry perspective” (Eur J Med Chem, 2020).
# Key:
# [1] = Half life of compound; format: physicochemical
# [2] = Protein binding in plasma (unknown origin); format: ADME, cell-free; details: read-out: PPB (converted)
# [3] = Half life of compound in human; format: ADME
# [4] = Half life in human at 600 mg, iv administered every 12 hrs as 1 hr infusion; format: ADME, organism-based; details: in vivo
# [5] = Oral bioavailability in human; format: ADME, organism-based; details: in vivo
# [6] = Bioavailability in human at 500 mg, IM; format: ADME, organism-based; details: in vivo
# [7] = Drug excretion in human urine assessed as unaltered drug; format: ADME; details: read-out: Drug excretion
# [8] = Elimination half life in human at 1 g, iv infusion for 30 mins; format: ADME, organism-based; details: in vivo, read-out: beta t1/2 (converted)
# [9] = Chemical stability of compound assessed as compound degradation at 37 degreeC measured for 24 hrs; format: physicochemical; details: read-out: Drug degradation
compound,measurement,setting,value
CC1(C)S[C@@H]2[C@H](NC(=O)Cc3ccccc3)C(=O)N2[C@H]1C(=O)O [PENICILLIN G],half-life,[1],0.333 h
same,fraction unbound,[2],0.4
CC1(C)S[C@@H]2[C@H](NC(=O)C(C(=O)O)c3ccccc3)C(=O)N2[C@H]1C(=O)O (some centres not stated) [CARBENICILLIN],half-life,[3],1 h
Cc1onc(-c2ccccc2)c1C(=O)N[C@@H]1C(=O)N2[C@@H]1SC(C)(C)[C@@H]2C(=O)O [OXACILLIN],fraction unbound,[2],0.1
CCO/N=C(\C(=O)N[C@@H]1C(=O)N2C(C(=O)O)=C(Sc3nc(-c4cc[n+](C)cc4)cs3)CS[C@H]12)c1nsc(NP(=O)(O)O)n1.[Na+],half-life,[4],1.6 h
Cc1onc(-c2ccccc2Cl)c1C(=O)N[C@@H]1C(=O)N2[C@@H]1SC(C)(C)[C@@H]2C(=O)O [CLOXACILLIN],fraction unbound,[2],0.1
C[C@H]1[C@H](NC(=O)/C(=N\OC(C)(C)C(=O)O)c2csc(N)n2)C(=O)N1S(=O)(=O)O [AZTREONAM],bioavailability,[5],1%
same,bioavailability,[6],100%
same,dose excreted,[7],68%
C[C@@H](O)[C@H]1C(=O)N2C(C(=O)O)=C(S[C@@H]3CN[C@H](C(=O)N(C)C)C3)[C@H](C)[C@H]12 [MEROPENEM],half-life,[8],1 h
same,degraded at 24 h,[9],60%
CC1(C)S[C@@H]2[C@H](NC(=O)[C@H](N)c3ccc(O)cc3)C(=O)N2[C@H]1C(=O)O [AMOXICILLIN],fraction unbound,[2],0.7
